Data on twelve compounds can be found in BindingDB's records for aid1799747 (Csar, 2012).

The target of this assay is T1, UDP-3-O-acyl-N-acetylglucosamine deacetylase (Aquifex aeolicus (strain VF5), UniProt O67648).
T1 sequence (O67648 whole entry): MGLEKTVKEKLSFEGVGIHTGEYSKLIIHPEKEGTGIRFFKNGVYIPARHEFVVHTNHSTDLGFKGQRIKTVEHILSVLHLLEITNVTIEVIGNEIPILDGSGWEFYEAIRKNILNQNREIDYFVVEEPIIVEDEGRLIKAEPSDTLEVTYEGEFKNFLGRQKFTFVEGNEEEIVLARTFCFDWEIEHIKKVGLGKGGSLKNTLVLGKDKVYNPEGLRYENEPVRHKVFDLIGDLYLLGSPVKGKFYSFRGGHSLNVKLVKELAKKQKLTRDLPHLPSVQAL
The assay can be described thus: OctetRed. The conditions noted are these: pH 7; 25 °C.
`NC[C@H](NC(=O)c1ccc(-c2ccccc2)cc1)C(=O)NO` [CS249] yielded a Kd of 145 nM.
In turn, `NC[C@H](NC(=O)c1ccc(-c2ccc(Br)cc2)cc1)C(=O)NO` [CS250] returned a Kd of 29 nM.
Compound `NC[C@H](NC(=O)c1ccc(C#CC#Cc2ccccc2)cc1)C(=O)NO` [CS252] registered a Ki of 10 nM.
Consider `C[C@@H](O)[C@H](NC(=O)c1ccc(C#CC#Cc2ccccc2)cc1)C(=O)NO` [CS257], for which the Ki came out at 1 nM.
On the same count and under the same terms, in the case of `C[C@@H](O)[C@H](NC(=O)c1ccc(-c2ccc(Br)cc2)cc1)C(=O)NO` [CS258] it was 1 nM; in that of `C[C@@H](O)[C@H](NC(=O)c1ccc(C#Cc2ccccc2)cc1)C(=O)NO` [CS259], 1 nM.
In turn, `C[C@@H](O)[C@H](NC(=O)c1ccc(-c2ccccc2)cc1)C(=O)NO` [CS263] registered a Kd of 14 nM.
The same measure, in the same setting: to `O=C(NO)[C@H]1COC(c2ccc(OC(F)(F)F)c(Cl)c2)=N1` [CS270] belongs 744 nM.
On the same count and under the same terms, to `O=C(NO)[C@H]1COC(c2ccc(F)c(C(F)(F)F)c2)=N1` [CS271] belongs 443 nM; to `O=C(NO)[C@H]1COC(c2cc3cc(F)ccc3[nH]2)=N1` [CS272], 772 nM; to `CCCc1ccc(-c2ccc(C3=N[C@@H](C(=O)NO)CO3)cc2)cc1` [CS274], 415 nM.
In turn, `O=C(NO)c1csc(-c2ccc(OC(F)(F)F)c(Cl)c2)n1` [CS275] had a Kd of 1820 nM.

What is called Kd is the free concentration of one partner at which half of the binding sites on the other are occupied at equilibrium, for simple one-to-one binding. The Ki is the dissociation constant of the complex between target and ligand, obtained from inhibition or displacement.
